According to paper PMC5908295 (Oncotarget, 2018):

Assays:
MOLM-14 = test: MTS viability assay, 72 h; conditions: Homo sapiens, MOLM-14, 72 h
Procedure: (§1) 15-25 ×10^3 of MV-4-11, MOLM-13, MOLM-14, MOLM-16, KG-1, Eol-1, SKM-1, PL-21, GDM-1, SKNO-1, RS4;11, Kasumi-3 and Kasumi-6 cells were seeded in 150 μL of culture medium onto individual wells in a 96 well plates, in triplicates. On the same day, 50 μL of medium containing tested inhibitor was added to the wells. Each compound was tested at 8 concentrations, in triplicates. As a negative control, the medium containing 0.1% DMSO was used. […] Staurosporine was used at 10 μM as a positive control. One the day of drug addition, basal signal from untreated cells was measured from in triplicate to determine time zero (T0). […] GI50 and LC50 values were extrapolated from a variable (four-parameter) dose-response curve fitted in GraphPad Prism.

RS4;11 = test: MTS viability assay, 72 h; conditions: Homo sapiens, RS4-11, 72 h
Procedure: as §1

MV-4-11 xenograft = test: MV-4-11 xenograft, SEL24-B489 and AraC alone or combined; assay type: in vivo, mice; conditions: MV-4-11, AraC alone 50 mg/kg three times weekly IP
From the text: All animals were handled in strict accordance with good animal practice as defined by the relevant national and local animal welfare bodies. SCID and SCID/beige C.B-17 mice were provided by Harlan Laboratories or Charles River Laboratories, and were maintained in pathogen free conditions. For the xenograft experiments, age-matched (9-11 weeks old) females were used. 5×10^6 of MV-4-11 or MOLM-16 cells were suspended in a mixture (1:1, v:v) of PBS with Matrigel (BD Biosciences,) and injected subcutaneously (sc), in a total volume of 100 μL, above the groin on the right hind limb. For MOLM-13 and KG-1 cells, a mixture (3:1, v:v) of PBS and Matrigel HC (BD Bioscience,) was used to inject 5 × 10^6 of cell per mouse subcutaneously (sc), in a total volume of 100 μL. When tumors reached 100-130 mm^3, mice were randomized into uniform groups (6-9 mice per group) and subsequently administered the compound. […] At the end of the experiment, mice were anesthetized with isofluran and blood samples for total cell counts and biochemistry were obtained by retro-orbital bleeding. […] 5×10^6 cells suspended in a mixture (3:1, v:v) of PBS and Matrigel were injected as described above. […] Tumor volume was monitored every second day and calculated using the formula: TV = (a^2×b)/2, where “a” is the short axis in millimeters, and “b” is the long axis in millimeters. Body weight was assessed every day.

PL-21 = test: MTS viability assay, 72 h; conditions: PL-21, 72 h
Procedure: as §1

SKNO-1 = test: MTS viability assay, 72 h; conditions: SKNO-1, 72 h
Procedure: as §1

KASUMI-6 = test: MTS viability assay, 72 h; conditions: 72 h
Procedure: as §1

KASUMI-3 = test: MTS viability assay, 72 h; conditions: Kasumi-3, 72 h
Procedure: as §1

KG-1 = test: MTS viability assay, 72 h; conditions: Homo sapiens, KG-1, 72 h
Procedure: as §1

MOLM-6 = test: MTS viability assay, 72 h; conditions: 72 h
Procedure: as §1

OCI-AML-3 = test: MTS viability assay, 72 h; conditions: Homo sapiens, OCI-AML-3, 72 h
Procedure: as §1

[1] = Blood biochemistry in mice with MV-4-11 tumors; assay type: in vivo; conditions: Cytarabine 50 mg/kg, treatment day 15
From the text: All animals were handled in strict accordance with good animal practice as defined by the relevant national and local animal welfare bodies. SCID and SCID/beige C.B-17 mice were provided by Harlan Laboratories or Charles River Laboratories, and were maintained in pathogen free conditions. For the xenograft experiments, age-matched (9-11 weeks old) females were used. 5×10^6 of MV-4-11 or MOLM-16 cells were suspended in a mixture (1:1, v:v) of PBS with Matrigel (BD Biosciences,) and injected subcutaneously (sc), in a total volume of 100 μL, above the groin on the right hind limb. For MOLM-13 and KG-1 cells, a mixture (3:1, v:v) of PBS and Matrigel HC (BD Bioscience,) was used to inject 5 × 10^6 of cell per mouse subcutaneously (sc), in a total volume of 100 μL. When tumors reached 100-130 mm^3, mice were randomized into uniform groups (6-9 mice per group) and subsequently administered the compound. […] At the end of the experiment, mice were anesthetized with isofluran and blood samples for total cell counts and biochemistry were obtained by retro-orbital bleeding. […] 5×10^6 cells suspended in a mixture (3:1, v:v) of PBS and Matrigel were injected as described above. When the tumor volume reached ~120 mm^3, mice were randomized into uniform groups (5 mice per group) and the compound then administered. […] Tumor volume was monitored every second day and calculated using the formula: TV = (a^2×b)/2, where “a” is the short axis in millimeters, and “b” is the long axis in millimeters. Body weight was assessed every day.
Supplementary Table 9: Related to Figure 5C. […] The assessment of
was performed on treatment day 15.
AST – Aspartate aminotransferase, ALT – Alanine transaminase, ALP – alkaline phosphatase, UREA – blood urea nitrogen,
CREA – Creatinine, CK – Creatine kinase, TP- total protein; ALB – Albumin. […]

MOLM-13 = test: MTS viability assay, 72 h; conditions: Homo sapiens, MOLM-13, 72 h
Procedure: as §1

SKM-1 = test: MTS viability assay, 72 h; conditions: Homo sapiens, SKM-1, 72 h
Procedure: (§2) On the same day, 50 μL of medium containing tested inhibitor was added to the wells. Each compound was tested at 8 concentrations, in triplicates. As a negative control, the medium containing 0.1% DMSO was used. […] Staurosporine was used at 10 μM as a positive control. One the day of drug addition, basal signal from untreated cells was measured from in triplicate to determine time zero (T0). […] GI50 and LC50 values were extrapolated from a variable (four-parameter) dose-response curve fitted in GraphPad Prism.

[2] = Total blood cell counts in mice with MV-4-11 tumors; conditions: Cytarabine 50 mg/kg, treatment day 15
From the text: All animals were handled in strict accordance with good animal practice as defined by the relevant national and local animal welfare bodies. SCID and SCID/beige C.B-17 mice were provided by Harlan Laboratories or Charles River Laboratories, and were maintained in pathogen free conditions. For the xenograft experiments, age-matched (9-11 weeks old) females were used. 5×10^6 of MV-4-11 or MOLM-16 cells were suspended in a mixture (1:1, v:v) of PBS with Matrigel (BD Biosciences,) and injected subcutaneously (sc), in a total volume of 100 μL, above the groin on the right hind limb. For MOLM-13 and KG-1 cells, a mixture (3:1, v:v) of PBS and Matrigel HC (BD Bioscience,) was used to inject 5 × 10^6 of cell per mouse subcutaneously (sc), in a total volume of 100 μL. When tumors reached 100-130 mm^3, mice were randomized into uniform groups (6-9 mice per group) and subsequently administered the compound. […] At the end of the experiment, mice were anesthetized with isofluran and blood samples for total cell counts and biochemistry were obtained by retro-orbital bleeding. […] 5×10^6 cells suspended in a mixture (3:1, v:v) of PBS and Matrigel were injected as described above. When the tumor volume reached ~120 mm^3, mice were randomized into uniform groups (5 mice per group) and the compound then administered. […] Tumor volume was monitored every second day and calculated using the formula: TV = (a^2×b)/2, where “a” is the short axis in millimeters, and “b” is the long axis in millimeters. Body weight was assessed every day. […]
Supplementary Table 10: Related to Figure 5C. […] The assessment total
performed on treatment day 15.
RBC – red blood cells, HGB – hemoglobin, HCT – hematocrit, WBC – white blood cells, LYMPH – lymphocytes, MONO
– monocytes, GRA – granulocytes, PLT – platelet, MPV – mean platelet volume.

EOL-1 = test: MTS viability assay, 72 h; conditions: Homo sapiens, EOL1, 72 h
Procedure: as §1

MOLM-16 = test: MTS viability assay, 72 h; conditions: MOLM16, 72 h
Procedure: as §2

SIG-M5 = test: MTS viability assay, 72 h; conditions: Homo sapiens, SIG-M5, 72 h
Procedure: as §2

GDM-1 = test: MTS viability assay, 72 h; conditions: Homo sapiens, GDM-1, 72 h
Procedure: as §1

MV-4-11 = test: MTS viability assay, 72 h; conditions: Homo sapiens, MV4-11, 72 h
Procedure: as §2

OCI-AML-2 = test: MTS viability assay, 72 h; conditions: Homo sapiens, OCI-AML2, 72 h
Procedure: as §2

[3] = set-up: method as in PMID 21628411, PMID 24953177; conditions: off-target inhibition of the potassium channel hERG; cited from earlier work

For `Nc1ccn([C@@H]2O[C@H](CO)[C@@H](O)[C@@H]2O)c(=O)n1` [Cytarabine], the GI50 (MOLM-14) was 48 nM, the CC50 (MOLM-14; read-out: LC50) was greater than 10000 nM and the GI50 (RS4;11) was less than 5 nM. The CC50 (RS4;11; read-out: LC50) was 23 nM, the “decrease of tumor growth” value (MV-4-11 xenograft) was 66% and the GI50 (PL-21) was less than 5 nM. It also gave a GI50 (SKNO-1) of less than 5 nM, a GI50 (KASUMI-6) of less than 5 nM and a GI50 (KASUMI-3) of less than 5 nM. The CC50 (KASUMI-3; read-out: LC50) was 28 nM, the GI50 (KG-1) was 12 nM and the CC50 (KG-1; read-out: LC50) was 71 nM. It also gave a GI50 (MOLM-6) of 30 nM, a CC50 (MOLM-6; read-out: LC50) greater than 10000 nM and a GI50 (OCI-AML-3) of 81 nM. For the same molecule, the CC50 (OCI-AML-3; read-out: LC50) was greater than 10000 nM, the ALB [1] was 4.6 g/dL and the ALP [1] was 87.6 U/L. It also gave an ALT [1] of 153.7 U/L, an AST [1] of 247.1 U/L and a CK [1] of 1709 U/L. It also gave a CREA [1] of 0.37 mg/dL, a K [1] of 5.4 mM and a TP [1] of 4.6 g/dL. For the same molecule, the UREA [1] was 5.9 mmol/L, the GI50 (MOLM-13) was less than 5 nM and the CC50 (MOLM-13; read-out: LC50) was greater than 10000 nM. It also gave a GI50 (SKM-1) of 28 nM, a CC50 (SKM-1; read-out: LC50) of 6460 nM and a GRA [2] of 51.9%. It also gave an HCT [2] of 49.5%, an HGB [2] of 14.4 g/dL and an LYMPH [2] of 37.7%. For the same molecule, the MONO [2] was 10.3%, the MPV [2] was 5.9 μm3 and the PLT [2] was 1098 103/mm3. The RBC [2] was 9.9 106/mm3, the WBC [2] was 5.0 103/mm3 and the GI50 (EOL-1) was 24 nM. For the same molecule, the GI50 (MOLM-16) was 22 nM, the CC50 (MOLM-16; read-out: LC50) was greater than 10000 nM and the GI50 (SIG-M5) was 46 nM. For the same molecule, the CC50 (SIG-M5; read-out: LC50) was greater than 10000 nM, the GI50 (GDM-1) was less than 5 nM and the GI50 (MV-4-11) was 340 nM. For the same molecule, the CC50 (MV-4-11; read-out: LC50) was greater than 10000 nM, the GI50 (OCI-AML-2) was less than 5 nM and the CC50 (OCI-AML-2; read-out: LC50) was 21 nM.
In the case of `CN1CCC(CNc2ccc3ncc(-c4cccc(OC(F)(F)F)c4)n3n2)CC1` [SGI-1776], the “outcome of clinical testing” value [3] is given as “failed clinical testing due to a narrow therapeutic window and cardiac toxicity”.
